Data published in PubChem BioAssay AID602235 (The Scripps Research Institute Molecular Screening Center, 2012).
pIC50: −log10 of the molar value. Active and inactive are the calls of the source. The rule behind the calls is not given here.

These compounds were tested against Nuclear receptor coactivator 1 (Homo sapiens) (UniProt Q15788) (assay: SRC1 (NCOA1) coactivator inhibitors, dose response, cell-based, luciferase reporter, luminescence (AID 602235);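 note: cells transfected with pGL4.31 reporter plus pBIND-SRC1 vector; potency is for inhibitors that lower SRC1 reporter luminescence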).
Nuclear receptor coactivator 1 (Homo sapiens), sequence (Q15788 whole entry, looked up): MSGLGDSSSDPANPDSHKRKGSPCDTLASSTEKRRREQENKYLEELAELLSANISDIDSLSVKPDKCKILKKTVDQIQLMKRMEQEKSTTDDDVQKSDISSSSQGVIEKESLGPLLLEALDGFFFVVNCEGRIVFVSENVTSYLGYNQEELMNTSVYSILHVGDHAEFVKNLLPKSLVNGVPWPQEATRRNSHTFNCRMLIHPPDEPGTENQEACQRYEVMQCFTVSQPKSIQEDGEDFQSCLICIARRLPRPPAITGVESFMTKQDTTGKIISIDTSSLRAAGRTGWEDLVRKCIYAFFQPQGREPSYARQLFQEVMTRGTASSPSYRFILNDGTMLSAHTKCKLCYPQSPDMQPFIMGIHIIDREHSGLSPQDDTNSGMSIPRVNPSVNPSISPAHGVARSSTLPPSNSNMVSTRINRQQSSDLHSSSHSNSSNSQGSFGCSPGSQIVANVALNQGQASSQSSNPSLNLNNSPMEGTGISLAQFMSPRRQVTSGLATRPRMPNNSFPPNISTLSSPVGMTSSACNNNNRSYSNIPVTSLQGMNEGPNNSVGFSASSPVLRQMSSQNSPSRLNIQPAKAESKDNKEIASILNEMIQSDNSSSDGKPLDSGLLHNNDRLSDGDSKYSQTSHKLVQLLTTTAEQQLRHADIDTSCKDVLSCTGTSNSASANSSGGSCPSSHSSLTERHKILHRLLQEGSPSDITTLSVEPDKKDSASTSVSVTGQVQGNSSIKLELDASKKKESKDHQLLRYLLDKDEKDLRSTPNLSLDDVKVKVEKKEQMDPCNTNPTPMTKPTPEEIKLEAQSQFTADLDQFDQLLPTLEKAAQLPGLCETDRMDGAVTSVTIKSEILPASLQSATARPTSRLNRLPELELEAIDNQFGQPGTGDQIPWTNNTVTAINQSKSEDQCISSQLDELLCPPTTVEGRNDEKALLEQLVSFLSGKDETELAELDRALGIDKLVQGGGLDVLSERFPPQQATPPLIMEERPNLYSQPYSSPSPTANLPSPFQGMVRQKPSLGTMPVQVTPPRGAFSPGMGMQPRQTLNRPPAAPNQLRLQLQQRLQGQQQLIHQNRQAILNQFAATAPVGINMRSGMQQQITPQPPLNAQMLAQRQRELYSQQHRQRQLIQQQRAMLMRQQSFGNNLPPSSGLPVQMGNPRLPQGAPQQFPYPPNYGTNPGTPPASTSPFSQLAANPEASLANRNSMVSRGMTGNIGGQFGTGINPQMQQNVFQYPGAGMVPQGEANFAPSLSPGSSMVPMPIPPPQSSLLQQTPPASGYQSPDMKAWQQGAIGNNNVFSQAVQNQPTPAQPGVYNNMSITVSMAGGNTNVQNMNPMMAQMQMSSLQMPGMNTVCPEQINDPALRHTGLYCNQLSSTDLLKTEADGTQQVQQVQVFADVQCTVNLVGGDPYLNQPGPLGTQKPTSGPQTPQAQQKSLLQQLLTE
Cc1cc(C)nc(SCc2ccc(C(=O)N/N=C/c3cccc(O)c3O)cc2)n1 showed a pIC50 of 5.29. In the case of COc1ccc(/C=C2/SC(=S)N(CCC(=O)O)C2=O)cc1, the IC50 was > 35.9 µM (inactive). In the case of COc1ccccc1-c1cc2nc(-c3ccccc3)cc(N3CCN(C(=O)c4ccco4)CC3)n2n1, the IC50 was “inactive”. With O=C(CCl)NC(Cc1ccccc1)c1ccccc1 (stereo not given) the IC50 was “inactive”. CC1CCN(C(=O)c2scc3c2OCCO3)CC1 was tested, and the IC50 was “inactive”. c1nc2sc3c(c2c2nnnn12)CCCC3 was tested, and the IC50 was “inactive”. In the case of Cc1noc(/C=C/c2ccco2)c1S(=O)(=O)N1CCC(C(=O)Nc2ccc(Cl)cn2)CC1, the IC50 was > 35.9 µM (inactive). For COC(=O)c1sc2cnccc2c1N, the IC50 was “inactive”. CNc1cccnc1C=NNC(N)=S gave a pIC50 of 5.46. Cc1ccc2nc(C(F)(F)F)c(C#N)c(N)c2c1 was tested, and the IC50 was “inactive”. For Cc1ccc(NC(=O)C2CCN(c3ncnc4sc(C)c(C)c34)CC2)cc1S(=O)(=O)N(C)C, the IC50 was “inactive”. For CC(=O)N1CCN(c2ccc(Oc3ncnc4sccc34)cc2)CC1, the IC50 was “inactive”. COc1ccc(/C=C2\CC/C(=C\c3ccc(OC)c(OC)c3)C2=O)cc1OC was tested, and the IC50 was > 35.9 µM (inactive). In the case of COc1ccccc1NS(=O)(=O)c1cccc(NC(=O)c2cncc(Br)c2)c1, the IC50 was “inactive”. In the case of CC(C)(C)NC(=O)C1(C)CCC(=O)N1CCCn1ccnc1 (stereo not given), the IC50 was “inactive”. With Nc1ncccc1C(=O)OCC(=O)N1CCN(S(=O)(=O)c2ccc(Cl)cc2)CC1 the IC50 was “inactive”. With Nc1ccc(-c2cc3ccccc3oc2=O)cc1 the pIC50 was 5.05. For CCN(C(=O)c1cccc(S(=O)(=O)N(C)C)c1)C12CC3CC(CC(C3)C1)C2, the IC50 was > 35.9 µM (inactive). In the case of O=C(N/N=C/c1cc([N+](=O)[O-])ccc1O)c1cccc(N2CCCC2=O)c1, the IC50 was “inactive”. For CCOc1cccc(/C=N/NC(=O)c2cccnc2)c1O, the IC50 was > 12 µM (inactive). In the case of Cc1ccc(NC(=O)NC2CC(=O)N(c3ccc4c(c3)OCCO4)C2)cc1C (stereo not given), the pIC50 was 5.22. In the case of NC(=S)NN=Cc1nccc2c(N)cccc12, the IC50 was “inactive”. With CCOc1ccccc1-n1c(SCC(=O)Nc2ccccc2C(=O)O)nc2ccccc2c1=O the IC50 was > 35.9 µM (inactive). Compound O=C(CCC1CCCC1)Nc1ccc(C(=O)NCc2cccnc2)cc1 has a pIC50 of 5.41. CC(=O)C1=C(C)NC2=C(C(=O)CC(C)(C)C2)C1C (stereo not given) was tested, and the IC50 was “inactive”. For COc1ccc(-c2cc(=O)oc3c(C)c(O)c(CN(C)C)cc23)cc1, the IC50 was “inactive”. For Cn1c(=O)c2[nH]c(COc3ccc(C(C)(C)C)cc3)nc2n(C)c1=O, the IC50 was “inactive”. For O=C(O)CN1C(=O)/C(=C\c2ccccc2OCc2ccc(Cl)cc2Cl)SC1=S, the IC50 was “inactive”. In the case of CC(C)Cn1c(N)c(C(=O)COC(=O)c2cc3ccccc3cc2O)c(=O)n(C)c1=O, the IC50 was > 35.9 µM (inactive). With COc1ccc(C(O)(C(C)C)C(CN2CCOCC2)c2ccc(Cl)cc2)cc1 (stereo not given) the IC50 was “inactive”. With N#Cc1c(-c2ccccc2)c(C#N)c2nc3ccccc3n2c1N the IC50 was > 35.9 µM (inactive). For Cc1cccn2c(=O)c3cc(C(=O)NCCN4CCOCC4)c(=N)n(Cc4cccnc4)c3nc12, the IC50 was “inactive”. In the case of COc1ccccc1/C=C\C(=O)NCC(=O)N/N=C/c1cccc(OC)c1O, the IC50 was “inactive”. For CCN(Cc1ccncc1)C(=O)CC1C(=O)NCCN1Cc1ccc(F)c(F)c1 (stereo not given), the IC50 was “inactive”. COc1ccc2c(c1)-c1c(ssc1=S)C(C)(C)N2C(=O)CSC1=NCCS1 was tested, and the IC50 was “inactive”. With O=C(COC(=O)c1ccc[nH]c1=O)Nc1ccc(N2CCCCC2)cc1 the IC50 was > 35.9 µM (inactive). CC(C)(C)OC(=O)NCC(=O)Oc1cc2oc(=O)cc(-c3ccccc3)c2cc1Cl was tested, and the IC50 was “inactive”. Cc1ccc(C)c(NC(=O)c2ccccc2NS(=O)(=O)c2cc([N+](=O)[O-])ccc2C)c1 was tested, and the pIC50 was 5.32. CC(=O)NC(c1cc(Cl)c2cccnc2c1O)C(C)C (stereo not given) was tested, and the IC50 was > 35.9 µM (inactive). With COc1cccc2c1C(=N)c1c(O)c3c(c(O)c1C2=O)CC(O)(C(C)=O)CC3OC1CC(N)C(O)C(C)O1 (stereo not given) the IC50 was > 35.9 µM (inactive). With Cc1ccc(OCC(=O)c2cc(C)n(-c3ccccc3)c2C)c([N+](=O)[O-])n1 the IC50 was “inactive”. In the case of Fc1ccc(CSc2nnc(-c3ccncc3)o2)cc1, the pIC50 was 5.22. For C=CCOc1ccc(/C=C2\SC(=S)N(CCC(=O)O)C2=O)cc1, the IC50 was > 35.9 µM (inactive). In the case of COC(CN(C(=O)CCl)C(C(=O)NC1CCCCC1)c1ccccc1C)OC (stereo not given), the pIC50 was 5.02. For Cc1ccc(N=c2c([N+](=O)[O-])nn(-c3ccc4c(c3)OCCO4)n2O)cc1F, the IC50 was “inactive”. In the case of O=C(CCl)N1N=C(c2cccs2)CC1c1ccco1 (stereo not given), the IC50 was > 35.9 µM (inactive). O=C(N/N=C(\c1ccccc1)c1ccccn1)c1ccccc1Cl was tested, and the IC50 was “inactive”. For NNC(=O)c1cc2ccccc2cc1O, the pIC50 was 5.15. With OCCN(CCO)CC(O)COc1ccc(C23CC4CC(CC(C4)C2)C3)cc1 (stereo not given) the IC50 was > 35.9 µM (inactive). CC(C)(C)c1cc(C(=O)N/N=C/c2ccc(O)cc2)n(-c2ccccc2)n1 was tested, and the IC50 was > 35.9 µM (inactive). For Cc1c(C(=O)N/N=C/C(C)C)[nH]c2ccc([N+](=O)[O-])cc12, the IC50 was “inactive”. CCOC(=O)CSc1cc(-c2ccccc2)nc2ncnn12 was tested, and the IC50 was > 35.9 µM (inactive). In the case of CCCc1cc(C(=O)N(C)CC(=O)Nc2ccc(OCC)c(OCC)c2)sc1C, the IC50 was > 35.9 µM (inactive). In the case of Cc1ccc(S(=O)(=O)Nc2c(NC3CCCCC3)c3ccccc3oc2=O)c(C)c1, the IC50 was > 35.9 µM (inactive). With COc1ccccc1CNC(=O)C(=O)NCCC1CCCCN1S(=O)(=O)c1ccc(C)cc1 (stereo not given) the IC50 was “inactive”. In the case of CCn1c2ccccc2c2cnc(N=CN(C)C)c(C#N)c21, the IC50 was “inactive”. Cc1ccc(OCC(=O)c2cc(C)n(Cc3cccs3)c2C)c([N+](=O)[O-])n1 was tested, and the IC50 was > 35.9 µM (inactive). Work on Cc1ccc(/C=C2\SC(=S)N(CCCC(=O)NC3CCCC3)C2=O)cc1 yielded a pIC50 of 5.47. COc1ccc(Nc2ncnc3ccc(C)cc23)cc1 was tested, and the pIC50 was 5.40. With CC1(C)Cc2c(ccc3ccccc23)C(=O)N1 the IC50 was “inactive”. In the case of CN(C)C(=O)c1ccc(-c2n[nH]c(=O)c3ccccc23)cc1, the IC50 was “inactive”. Compound O=C(Nc1cccc(Cl)c1)Nc1nnc(-c2ccncc2)s1 has a pIC50 of 5.10. Cc1nc2c(-c3ccc(F)cc3)cnn2c(N)c1-c1ccccc1 was tested, and the IC50 was “inactive”. In the case of Nc1ccn([C@@H]2O[C@H](CO)[C@@H](O)C2O)c(=O)n1 (stereo not given in full), the IC50 was “inactive”. With CCN1CCN(C(=S)c2ccc(-c3ccccc3)cc2)CC1 the IC50 was > 35.9 µM (inactive). CCc1ccc(/C=C2\SC(=S)N(CCCC(=O)NCCCN3CCOCC3)C2=O)cc1 gave a pIC50 of 5.20. With O=C(Nc1nc(-c2ccccn2)cs1)c1cccc(S(=O)(=O)N2CCOCC2)c1 the IC50 was “inactive”. In the case of O=C(c1ccncc1)N(Cc1cc2ccccc2[nH]c1=O)C1CCCCC1, the IC50 was “inactive”. In the case of CCN(CC)CCNC(=O)c1ccc(NC(=O)C2CCN(c3ncnc4sc(C)c(C)c34)CC2)cc1, the pIC50 was 5.27. With O=[N+]([O-])c1ccc2c(c1)-c1ccccc1C2=NO the IC50 was “inactive”. With O=C(Nc1nc(-c2ccccn2)cs1)c1cccc(-n2cnnn2)c1 the IC50 was “inactive”. For OCCN1CCN(C(=S)c2ccc(-c3ccccc3)cc2)CC1, the IC50 was > 35.9 µM (inactive). Nc1nc(CCl)nc(Nc2cccc3ccccc23)n1 was tested, and the IC50 was “inactive”. For O=C(CSc1nc(-c2cccs2)cc(C(F)(F)F)n1)Nc1cc(OCC(F)(F)C(F)F)cc([N+](=O)[O-])c1, the IC50 was > 35.9 µM (inactive). O=C(CCl)N1N=C(c2ccco2)CC1c1ccco1 (stereo not given) gave a pIC50 of 5.24. In the case of Cc1ccccc1C(=O)/C(C#N)=N/Nc1c(C)n(C)n(-c2ccccc2)c1=O, the IC50 was “inactive”. For O=C1NCCc2c1[nH]c1ccc([N+](=O)[O-])cc21, the IC50 was “inactive”. In the case of Cc1c2ccncc2cc2c1[nH]c1ccccc12, the IC50 was > 35.9 µM (inactive). For Cc1cccc(C)c1-c1ccc(CN2C(CC(C)C)C(=O)N(Cc3cn(CC4CCCCC4)nn3)CCS2(=O)=O)cc1 (stereo not given), the IC50 was “inactive”. CCOc1cccc(/C=N/NC(=O)c2cc(C3CC3)[nH]n2)c1O showed a pIC50 of 5.08. Compound CCCCCOc1ccc(/C=C/c2c([N+](=O)[O-])c(=O)n(C)c(=O)n2C)cc1 has a pIC50 of 5.04. In the case of CC(=O)c1cccc(NC(=O)COc2cc3oc(=O)c(CC(C)O)c(C)c3cc2Cl)c1 (stereo not given), the IC50 was > 35.9 µM (inactive). Work on COc1ccc2ncn(-c3ccccc3)c2c1 yielded a pIC50 of 5.09. O=C(Nc1ccncc1)c1ccccc1[N+](=O)[O-] showed a pIC50 of 5.02. Nc1ccc(Oc2ccccc2-c2ccccc2)cc1 was tested, and the IC50 was “inactive”. With CCc1c(C)nc2c(C)cccc2c1SCCC#N the IC50 was > 35.9 µM (inactive). Cc1sc2ncnc(N3CCC(C(=O)Nc4cc(S(C)(=O)=O)ccc4Cl)CC3)c2c1C was tested, and the IC50 was “inactive”. In the case of Oc1ccc(C=NNc2ccccn2)c(O)c1, the IC50 was “inactive”. In the case of Cc1cccc(C)c1-n1nnnc1C(c1cccs1)N1CCC2(CC1)C(=O)NCN2c1ccccc1 (stereo not given), the IC50 was “inactive”. CN(C)C=Nc1c(C(=O)c2ccccc2)sc2nccc(N(C)C)c12 was tested, and the pIC50 was 5.07. COc1ccc(CNc2ncc(-c3ccc(F)cc3)n2C)c2ccccc12 was tested, and the IC50 was “inactive”. For CC(C)n1c(-c2cccnc2)nc2cnccc21, the IC50 was “inactive”. With CCn1c(Oc2ccc(F)cc2)nc2c1c(=O)n(C)c(=O)n2C the IC50 was > 12 µM (inactive). In the case of COc1ccc(Nc2ncnc3ccc(Br)cc23)c(OC)c1, the pIC50 was 5.61. For CC1CCCCN1c1ncnc2ccccc12 (stereo not given), the IC50 was > 35.9 µM (inactive). With COc1ccc(-n2cnc(N)c2C(=O)c2cccc([N+](=O)[O-])c2)cc1 the IC50 was “inactive”. For NS(=O)(=O)c1ccc(Nc2nc(-c3cccnc3)cs2)cc1, the IC50 was > 35.8 µM (inactive). For S=C(c1ccc(-c2ccccc2)cc1)N1CCOCC1, the IC50 was > 35.8 µM (inactive). With O=C1CCC/C1=c1\s/c(=C/c2cccnc2)c(=O)n1-c1ccccc1 the IC50 was “inactive”. In the case of Cc1ccc2occ(/C=N/NC(=O)c3ccncc3)c(=O)c2c1, the IC50 was “inactive”. For Cc1ccc(N(Cc2cc(=O)[nH]c3ccccc23)C(=O)CCl)c(C)c1, the pIC50 was 5.27. COc1cccc(NC(=O)CN(C)CC(=O)Nc2ccc(Cl)cc2[N+](=O)[O-])c1 was tested, and the IC50 was “inactive”. For O=[N+]([O-])c1ccc(N(CCO)CCO)c2c1no[n+]2[O-], the IC50 was “inactive”. With CC(=O)NC(c1cc(Cl)c2cccnc2c1O)C1CC1 (stereo not given) the IC50 was “inactive”. CCCCCCCC[n+]1c(C)n(-c2ccccc2)c2ccc(NC(C)=O)cc21 was tested, and the IC50 was > 35.9 µM (inactive).
